Experimental data published in ChEMBL document CHEMBL3853301, “The therapeutic voyage of pyrazole and its analogs: A review” (Eur J Med Chem, 2016).
≈ marks a conversion by molar mass, not a printed value.

Experiments:
[1] = tested on: Aspergillus fumigatus; test: Antifungal activity against Aspergillus fumigatus NCIM 535 by broth microdilution method; assay type: functional
[2] = tested on: Bacillus subtilis; test: Antibacterial activity against Bacillus subtilis NCIM 2711 by broth microdilution method; assay type: functional
[3] = Antifungal activity against Penicillium notatum NCIM 745 by broth microdilution method; assay type: functional; settings: Penicillium chrysogenum
[4] = Antiproliferative activity against human NPC-TW01 cells after 72 hrs by MTT assay; assay type: functional; settings: NPC-TW01, 72 h
[5] = Antiproliferative activity against human NCI-H226 cells after 72 hrs by MTT assay; assay type: functional; settings: NCI-H226, 72 h
[6] = tested on: Bovine viral diarrhea virus 1; test: Antiviral activity against Bovine viral diarrhea virus 1 infected in MDBK cells; assay type: functional, cell-based; settings: Bovine viral diarrhea virus isolates and strains
[7] = tested on: Bacillus subtilis; test: Antibacterial activity against Bacillus subtilis by broth dilution method; assay type: functional
[8] = tested on: Rattus norvegicus; test: Antihyperglycemic activity in STZ/nicotinamide-induced type2 diabetic Wistar rat model assessed as blood glucose level at 100 mg/kg, po measured for 14 days post dose; assay type: functional
[9] = tested on: Mycobacterium tuberculosis; test: Antimycobacterial activity against Mycobacterium tuberculosis H37Rv; assay type: functional
[10] = tested on: Bovine viral diarrhea virus 1; test: Potency index, ratio of ribavirin EC50 to compound EC50 for Bovine viral diarrhea virus 1 infected in MDBK cells; assay type: functional
[11] = biological target: T1, Prostaglandin G/H synthase 2 (Homo sapiens, UniProt P35354); test: Inhibition of recombinant human COX2 assessed as reduction in PGF2alpha production from PGH2 by enzyme immunoassay
T1 sequence (P35354 whole entry): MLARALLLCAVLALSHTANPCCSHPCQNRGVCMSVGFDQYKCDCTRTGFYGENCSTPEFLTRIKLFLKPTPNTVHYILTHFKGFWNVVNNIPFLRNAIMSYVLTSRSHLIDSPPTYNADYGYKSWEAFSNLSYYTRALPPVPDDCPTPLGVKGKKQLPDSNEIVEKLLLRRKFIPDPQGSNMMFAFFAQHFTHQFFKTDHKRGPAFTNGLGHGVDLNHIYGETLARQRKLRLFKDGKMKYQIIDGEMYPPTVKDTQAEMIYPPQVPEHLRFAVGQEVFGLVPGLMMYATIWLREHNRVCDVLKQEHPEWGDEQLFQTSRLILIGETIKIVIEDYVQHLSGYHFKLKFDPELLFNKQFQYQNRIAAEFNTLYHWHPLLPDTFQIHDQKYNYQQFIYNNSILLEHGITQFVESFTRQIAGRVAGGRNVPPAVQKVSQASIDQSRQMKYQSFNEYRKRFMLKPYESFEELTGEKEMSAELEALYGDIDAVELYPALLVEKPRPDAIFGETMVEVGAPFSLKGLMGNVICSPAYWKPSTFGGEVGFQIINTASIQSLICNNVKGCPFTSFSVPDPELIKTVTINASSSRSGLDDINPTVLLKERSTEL

[12] = biological target: T2, Prostaglandin G/H synthase 1 (Ovis aries, UniProt P05979); test: Inhibition of recombinant ovine COX1 assessed as reduction in PGF2alpha production from PGH2 by enzyme immunoassay
T2 sequence (P05979 whole entry): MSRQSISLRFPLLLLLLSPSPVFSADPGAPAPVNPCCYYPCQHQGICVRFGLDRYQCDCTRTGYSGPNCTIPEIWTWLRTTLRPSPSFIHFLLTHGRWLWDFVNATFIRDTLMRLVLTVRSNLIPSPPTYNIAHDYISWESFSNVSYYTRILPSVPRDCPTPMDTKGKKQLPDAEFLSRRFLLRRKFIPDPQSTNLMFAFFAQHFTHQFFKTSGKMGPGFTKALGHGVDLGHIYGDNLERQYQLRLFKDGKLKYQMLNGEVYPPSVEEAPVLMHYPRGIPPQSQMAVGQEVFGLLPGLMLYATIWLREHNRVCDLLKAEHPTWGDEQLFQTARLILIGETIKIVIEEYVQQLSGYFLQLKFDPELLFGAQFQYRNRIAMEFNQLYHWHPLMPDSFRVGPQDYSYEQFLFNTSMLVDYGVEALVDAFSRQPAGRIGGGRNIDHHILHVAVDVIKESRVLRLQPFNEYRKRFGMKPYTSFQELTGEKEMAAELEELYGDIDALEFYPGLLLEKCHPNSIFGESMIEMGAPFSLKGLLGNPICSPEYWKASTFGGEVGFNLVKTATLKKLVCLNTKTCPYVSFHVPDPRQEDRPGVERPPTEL

[13] = Selectivity index, ratio of IC50 for recombinant ovine COX1 to IC50 for recombinant human COX2
[14] = tested on: Escherichia coli; test: Antibacterial activity against Escherichia coli NCIM 2685 by broth microdilution method; assay type: functional
[15] = Antidiabetic activity in albino mouse assessed as reduction in alloxan-induced plasma glucose level at 0.2 mmol/kg, po administered 3 days post alloxan challenge measured 1 to 3 hrs post dose by copper reduction based colorimetric assay relative to control; assay type: functional, organism-based
[16] = tested on: Escherichia coli; test: Antibacterial activity against Escherichia coli after 16 hrs by serial dilution method; assay type: functional
[17] = tested on: Pseudomonas aeruginosa; test: Antibacterial activity against Pseudomonas aeruginosa after 16 hrs by serial dilution method; assay type: functional
[18] = tested on: Staphylococcus aureus; test: Antibacterial activity against Staphylococcus aureus after 16 hrs by serial dilution method; assay type: functional
[19] = tested on: Bacillus subtilis; test: Antibacterial activity against Bacillus subtilis after 16 hrs by serial dilution method; assay type: functional
[20] = tested on: Staphylococcus aureus; test: Antibacterial activity against Staphylococcus aureus NCTC 7447 by serial dilution method; assay type: functional
[21] = tested on: Staphylococcus aureus; test: Antibacterial activity against Staphylococcus aureus NCTC 7447 by agar diffusion method; assay type: functional
[22] = tested on: Escherichia coli; test: Antibacterial activity against Escherichia coli MTCC 443 after 24 hrs by broth dilution method; assay type: functional; settings: MTCC 443, 24 h
[23] = tested on: Bacillus cereus; test: Antibacterial activity against Bacillus cereus; assay type: functional
[24] = tested on: Staphylococcus aureus; test: Antibacterial activity against Staphylococcus aureus; assay type: functional

Question: For Nc1ccc2nc(Cl)c(-c3cc(-c4ccccc4)nn3C(=O)O)cc2c1, which MIC [1] is on record?
Answer: Its MIC is 48 mg/L (≈ 132 µM).

Question: And the MIC [2]?
Answer: Its MIC is 44 mg/L (≈ 121 µM).

Question: And the MIC [3]?
Answer: Its MIC is 46 mg/L (≈ 126 µM).

Question: Which GI50 [4] does the source give for Cc1ccc(-c2cc(C(=O)Nc3ccc(N)cc3)n(-c3ccc4ccccc4n3)n2)cc1 here?
Answer: The GI50 was 30 µM.

Question: What about the GI50 [5] of the same compound?
Answer: Its GI50 is 18 µM.

Question: With NC(=O)c1ncn([C@@H]2O[C@H](CO)[C@@H](O)[C@H]2O)n1 [RIBAVIRIN] as the compound, how does the EC50 [6] read?
Answer: The EC50 was 1.3 µM.

Question: With COc1ccc(-n2c(-c3cn(-c4ccccc4)nc3-c3ccccc3)nc3ccccc3c2=O)cc1 as the compound, how does the MIC [7] read?
Answer: The MIC was 62.5 mg/L (≈ 133 µM).

Question: With COc1cc2c(cc1OC)C(=O)C(Cc1cn(-c3ccc(C)cc3)nc1-c1cc3ccccc3oc1=O)C2 (centres undefined) as the compound, how does the Activity [8] read?
Answer: Its Activity is 115 mg/dL.

Question: With O=C1c2ccccc2NC(c2cn(-c3ccccc3)nc2-c2ccccc2)N1c1ccc(Cl)cc1 (centres undefined) as the compound, how does the MIC [9] read?
Answer: The MIC was 12.5 mg/L (≈ 26.2 µM).

Question: Which results are given for Cc1ccc(-n2nc(C)c3c2CN(c2ccccc2)C3=O)cc1?
Answer: Ratio EC50 [10]: 10; EC50 [6]: 0.12 µM

Question: Which results are given for CC(=O)NC1=NN(C(C)=O)C(c2cn(-c3ccccc3)nc2-c2ccc(O)cc2)S1 (centres undefined)?
Answer: IC50 [11]: 14 µM; IC50 [12]: 73 µM; Ratio IC50 [13]: 5.21

Question: With COc1ccc(-n2cc(CC3Cc4cc(OC)c(OC)cc4C3=O)c(-c3cc4ccccc4oc3=O)n2)cc1 (centres undefined) as the compound, how does the Activity [8] read?
Answer: The Activity was 138 mg/dL.

Question: Which IC50 [14] does the source give for O=C1/C(=C\c2cn(-c3ccccc3)nc2-c2ccc(O)cc2)SC(=S)N1c1ccc(Cl)cc1 here?
Answer: Its IC50 is 62.5 mg/L (≈ 128 µM).

Question: Which inhibition [15] does the source give for Cc1c(Br)c(C(F)(F)F)nn1-c1ccc(S(=O)(=O)NC(=O)Nc2ccccc2)cc1 here?
Answer: Its inhibition is 20%.

Question: Which MIC [16] does the source give for Sc1nncn1/N=C/c1cn[nH]c1-c1ccccc1 here?
Answer: The MIC was 1.61 mg/L (≈ 5.96 µM).

Question: What about the MIC [17] of the same compound?
Answer: The MIC was 1.61 mg/L (≈ 5.96 µM).

Question: What about the MIC [18] of the same compound?
Answer: Its MIC is 1.61 mg/L (≈ 5.96 µM).

Question: What about the MIC [19] of the same compound?
Answer: The MIC was 1.61 mg/L (≈ 5.96 µM).

Question: Which IC50 [11] does the source give for CC(=O)NC1=NN(C(C)=O)C(c2cn(-c3ccccc3)nc2-c2ccc([N+](=O)[O-])cc2)S1 (centres undefined) here?
Answer: The IC50 was 20 µM.

Question: And the IC50 [12]?
Answer: The IC50 was 70 µM.

Question: What about the Ratio IC50 [13] of the same compound?
Answer: The Ratio IC50 was 3.5.

Question: For O=C(O)n1nc(-c2ccccc2)cc1-c1cc2ccccc2nc1Cl, which MIC [14] is on record?
Answer: Its MIC is 43 mg/L (≈ 123 µM).

Question: And the MIC [2]?
Answer: The MIC was 54 mg/L (≈ 154 µM).

Question: What about the MIC [3] of the same compound?
Answer: Its MIC is 57 mg/L (≈ 163 µM).

Question: Which MIC [20] does the source give for CC(=O)Nc1ccc(/N=N/c2c(N)nn3c(-c4ccccc4Cl)c(C#N)c(=O)[nH]c23)cc1 here?
Answer: The MIC was 110 mg/L (≈ 246 µM).

Question: What about the “inhibition zone (IZ)” value [21] of the same compound?
Answer: The value was 2.5 cm.

Question: Which MIC [22] does the source give for O=C1CSC(N2N=C(c3ccccc3[N+](=O)[O-])CC2c2cn(-c3ccccc3)nc2-c2ccc(F)cc2)=N1 (centres undefined) here?
Answer: The MIC was 12.5 mg/L (≈ 23.7 µM).

Question: Which results are given for Nc1ccc(NC(=O)c2cc(-c3ccc(Cl)cc3)nn2-c2ccccc2)cc1?
Answer: GI50 [4]: 30 µM; GI50 [5]: 18 µM

Question: With O=C1C(c2cc(-c3ccc(Br)cc3)nn2-c2ccccc2)C(O)N(c2ccccc2)C(=S)N1c1ccccc1 (centres undefined) as the compound, how does the MIC [23] read?
Answer: The MIC was 31.2 mg/L (≈ 52.5 µM).

Question: And the MIC [24]?
Answer: The MIC was 31.2 mg/L (≈ 52.5 µM).
